US20220265646A1, “PIEZO AGONISTS FOR PREVENTING OR REVERTING ABNORMAL AMYLOID DEPOSITION” (ITÄ-SUOMEN YLIOPISTO, priority 2019, published 2022)

What was measured:
[1] = molecular target: T1, Piezo1Rs (Homo sapiens, UniProt Q92508); experiment: Calcium imaging of Yoda1-evoked Ca2+ transients in SV-40 immortalized human microglia cell line; format: cell-based; details: control SV-40 cells, n=13
T1 construct: SV-40 immortalized human microglia cell line which endogenously express Piezo-1 and Piezo2Rs was used; endogenous in cells; host or cells: SV-40 immortalized human microglia cell line
Protocol: To study the calcium influx evoked by native Piezo1 Rs expressed in microglia cells the present inventors used short Yoda1 applications (2 s, 50 μM if not otherwise specified). For this purpose, human IPSO derived microglia cells and SV-40 (immortalized human microglia) cells were seeded on 7 mm cover slips 1 day prior to the imaging experiment. Cells were loaded with the calcium-sensitive fluorescent dye Fluo-4AM (5 μM) for 30 min at 37° C. Followed by wash-incubation for 15 min in Ab 20 μM, 50 μM GdCI and basic solution (BS) as a control at 37° C. The basic solution containing the following (BS, in mM): 2.5 KCl, 152 NaCl, 10 glucose, 2 CaCl2, and 10 HEPES at pH 7.4. Fluorescence was visualized using monochromatic light source (TILL Photonics GmbH) using Ex/Im 494/[…] and a CCD camera (SensiCam). […] To quantify the difference in the amplitude of calcium transients, the ratio values were normalized by subtracting a baseline and further divided by the amplitude of the calcium transient to the 2 sec application of the ionomycin. Data were pre-analyzed offline using the FEI offline analysis (TILL Photonics), and further analysis was automatized using MatLab. Quantitative data were expressed as means±SEM unless otherwise stated. […] Significance assessed with the ANOVA test or Mann-Whitney t test for non-parametric data. […]

[2] = tested on: hIPSC-derived microglia; experiment: Cytokine measurement (cytokine bead assay) in LPS-treated iPSC-derived microglia; format: cell-based, human; details: Yoda1 20 μM (Y20), n=4 per group
Protocol: Cytokine measurement. The impact of Piezo1Rs effect on the capacity of the iPSC derived microglia to release cytokines was evaluated using cytokine bead assay (CBA, PD Pharmingen)). Shortly, prior to the experiment IPSCs were plated in 24-well plate at 70,000 cells/cm^2 and cultured for 48 hours. […] Next, media were collected, centrifuged to remove any cell debris, and the supernatant was frozen at −70° C. Cytokines were analyzed with cytometric bead array mouse inflammation kit (BD Biosciences) according to manufacturer's instructions.

[3] = molecular target: T2, Piezo channels in red blood cells (Mus musculus, UniProt E2JF22); experiment: Red blood cell (RBC) Ca2+ flux by flow cytometry; format: cell-based; details: 10 uM Yoda1, 17-23 weeks of age
T2 construct: from tissue; host or cells: red blood cells from blood of 5xFAD transgenic mice and wild-type controls
Protocol: The blood samples (50-100 μl) were collected from 5xFAD mice at different ages (13-15 weeks, 15-17 weeks, 17-19 weeks, 19-21 weeks and 21-23 weeks of age) for analysis of RBC Ca2 flux. Shortly, the blood samples were collected in Eppendorf tubes with sodium citrate to prevent coagulation. Then the samples were filtered through 100 μm filters to remove possible contaminants and aggregates, followed by two times wash with PBS (5 mins, 300g, RT) to remove plasma. 50 μl of red blood cells were transferred to dean tube and resuspended in 200 μl PBS (250 μl total volume of cell suspension). 250 μl of Fluo4 stock solution was added and cells were incubated for 30 minutes at 37° C. in dark. […] The Ca2+ flux was recorded by CytoFlex at high 60 μl/min flow rate. Recording was started at 20 sec run after the flow rate is stabilized, After 20 sec recording (baseline fluorescence), the Yoda1 at final concentration 10 μM was applied, at 4 min 20 sec time point (4 minutes after Yoda1 is added) ionomycin at 10 μM final concentration is added as positive control and sample is continued running until 6 min were up. Mean fluorescence intensity was measured using gates at different time points—baseline (before application of Yoda1 10 μM), at 1 min, 2 min, 3 min, at 4 min of recording. […]
The samples were recorded for 6 minutes. […]

T2 sequence (E2JF22 whole entry): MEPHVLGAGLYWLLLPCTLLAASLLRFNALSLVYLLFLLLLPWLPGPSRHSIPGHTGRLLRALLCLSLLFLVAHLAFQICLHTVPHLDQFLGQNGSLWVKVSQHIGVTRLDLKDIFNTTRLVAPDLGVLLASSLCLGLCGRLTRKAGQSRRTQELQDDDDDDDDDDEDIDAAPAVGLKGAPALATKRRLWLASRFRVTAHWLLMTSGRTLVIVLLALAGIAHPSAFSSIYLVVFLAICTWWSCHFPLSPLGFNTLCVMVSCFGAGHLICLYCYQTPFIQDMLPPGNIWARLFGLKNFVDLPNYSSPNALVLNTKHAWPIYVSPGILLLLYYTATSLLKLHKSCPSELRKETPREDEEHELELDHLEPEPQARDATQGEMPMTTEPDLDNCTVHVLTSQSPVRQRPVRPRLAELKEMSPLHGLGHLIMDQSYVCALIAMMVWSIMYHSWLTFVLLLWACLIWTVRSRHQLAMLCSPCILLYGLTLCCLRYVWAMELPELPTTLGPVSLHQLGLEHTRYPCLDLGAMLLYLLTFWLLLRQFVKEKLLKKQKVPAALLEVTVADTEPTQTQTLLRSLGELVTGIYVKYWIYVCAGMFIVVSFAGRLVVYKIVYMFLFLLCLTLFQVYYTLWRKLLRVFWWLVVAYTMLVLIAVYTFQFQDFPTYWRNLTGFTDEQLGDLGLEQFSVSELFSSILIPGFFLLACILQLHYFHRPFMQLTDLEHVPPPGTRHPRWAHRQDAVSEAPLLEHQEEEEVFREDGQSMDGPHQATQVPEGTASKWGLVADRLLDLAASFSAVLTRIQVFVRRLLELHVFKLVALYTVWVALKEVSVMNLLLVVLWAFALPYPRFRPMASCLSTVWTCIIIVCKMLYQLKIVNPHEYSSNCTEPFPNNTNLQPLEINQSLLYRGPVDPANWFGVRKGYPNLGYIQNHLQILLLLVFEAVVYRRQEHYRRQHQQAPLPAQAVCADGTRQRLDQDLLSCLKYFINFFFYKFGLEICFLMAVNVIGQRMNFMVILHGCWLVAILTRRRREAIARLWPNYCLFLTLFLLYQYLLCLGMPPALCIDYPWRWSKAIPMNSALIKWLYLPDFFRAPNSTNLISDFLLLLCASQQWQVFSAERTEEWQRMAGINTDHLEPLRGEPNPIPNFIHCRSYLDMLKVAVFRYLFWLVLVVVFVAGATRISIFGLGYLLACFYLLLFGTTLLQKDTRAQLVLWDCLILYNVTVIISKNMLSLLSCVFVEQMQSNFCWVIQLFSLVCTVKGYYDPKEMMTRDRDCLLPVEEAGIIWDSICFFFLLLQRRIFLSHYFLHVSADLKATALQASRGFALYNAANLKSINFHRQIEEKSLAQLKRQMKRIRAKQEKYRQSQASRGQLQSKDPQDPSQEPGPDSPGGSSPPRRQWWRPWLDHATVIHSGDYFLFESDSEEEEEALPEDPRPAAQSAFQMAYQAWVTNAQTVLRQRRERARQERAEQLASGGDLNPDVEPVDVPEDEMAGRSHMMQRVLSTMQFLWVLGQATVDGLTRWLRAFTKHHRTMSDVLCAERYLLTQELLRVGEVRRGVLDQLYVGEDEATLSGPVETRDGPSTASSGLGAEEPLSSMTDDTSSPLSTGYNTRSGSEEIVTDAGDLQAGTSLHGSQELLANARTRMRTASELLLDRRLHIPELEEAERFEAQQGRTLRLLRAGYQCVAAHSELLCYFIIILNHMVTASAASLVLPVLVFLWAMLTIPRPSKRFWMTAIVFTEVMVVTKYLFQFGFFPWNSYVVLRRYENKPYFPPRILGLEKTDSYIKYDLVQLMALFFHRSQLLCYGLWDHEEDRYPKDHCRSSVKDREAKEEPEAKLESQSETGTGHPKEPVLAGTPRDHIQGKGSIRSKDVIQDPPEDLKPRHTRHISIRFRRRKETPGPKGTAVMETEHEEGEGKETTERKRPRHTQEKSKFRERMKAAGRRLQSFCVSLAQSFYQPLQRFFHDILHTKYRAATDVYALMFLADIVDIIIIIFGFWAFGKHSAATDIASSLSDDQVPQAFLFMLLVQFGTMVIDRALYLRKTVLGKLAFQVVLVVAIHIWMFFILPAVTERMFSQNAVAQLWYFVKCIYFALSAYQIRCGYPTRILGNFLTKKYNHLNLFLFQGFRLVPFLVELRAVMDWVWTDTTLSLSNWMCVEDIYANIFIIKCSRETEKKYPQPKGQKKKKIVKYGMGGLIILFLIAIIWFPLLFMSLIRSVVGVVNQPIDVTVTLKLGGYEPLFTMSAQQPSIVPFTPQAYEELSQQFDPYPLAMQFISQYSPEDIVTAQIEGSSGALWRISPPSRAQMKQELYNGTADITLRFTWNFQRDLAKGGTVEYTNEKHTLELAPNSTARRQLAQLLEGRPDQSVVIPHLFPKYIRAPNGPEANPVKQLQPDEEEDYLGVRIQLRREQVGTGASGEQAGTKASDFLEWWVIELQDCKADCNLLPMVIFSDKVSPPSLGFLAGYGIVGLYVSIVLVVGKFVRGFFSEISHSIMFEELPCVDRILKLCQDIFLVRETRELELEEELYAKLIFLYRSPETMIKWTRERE
T1 sequence (Q92508 whole entry): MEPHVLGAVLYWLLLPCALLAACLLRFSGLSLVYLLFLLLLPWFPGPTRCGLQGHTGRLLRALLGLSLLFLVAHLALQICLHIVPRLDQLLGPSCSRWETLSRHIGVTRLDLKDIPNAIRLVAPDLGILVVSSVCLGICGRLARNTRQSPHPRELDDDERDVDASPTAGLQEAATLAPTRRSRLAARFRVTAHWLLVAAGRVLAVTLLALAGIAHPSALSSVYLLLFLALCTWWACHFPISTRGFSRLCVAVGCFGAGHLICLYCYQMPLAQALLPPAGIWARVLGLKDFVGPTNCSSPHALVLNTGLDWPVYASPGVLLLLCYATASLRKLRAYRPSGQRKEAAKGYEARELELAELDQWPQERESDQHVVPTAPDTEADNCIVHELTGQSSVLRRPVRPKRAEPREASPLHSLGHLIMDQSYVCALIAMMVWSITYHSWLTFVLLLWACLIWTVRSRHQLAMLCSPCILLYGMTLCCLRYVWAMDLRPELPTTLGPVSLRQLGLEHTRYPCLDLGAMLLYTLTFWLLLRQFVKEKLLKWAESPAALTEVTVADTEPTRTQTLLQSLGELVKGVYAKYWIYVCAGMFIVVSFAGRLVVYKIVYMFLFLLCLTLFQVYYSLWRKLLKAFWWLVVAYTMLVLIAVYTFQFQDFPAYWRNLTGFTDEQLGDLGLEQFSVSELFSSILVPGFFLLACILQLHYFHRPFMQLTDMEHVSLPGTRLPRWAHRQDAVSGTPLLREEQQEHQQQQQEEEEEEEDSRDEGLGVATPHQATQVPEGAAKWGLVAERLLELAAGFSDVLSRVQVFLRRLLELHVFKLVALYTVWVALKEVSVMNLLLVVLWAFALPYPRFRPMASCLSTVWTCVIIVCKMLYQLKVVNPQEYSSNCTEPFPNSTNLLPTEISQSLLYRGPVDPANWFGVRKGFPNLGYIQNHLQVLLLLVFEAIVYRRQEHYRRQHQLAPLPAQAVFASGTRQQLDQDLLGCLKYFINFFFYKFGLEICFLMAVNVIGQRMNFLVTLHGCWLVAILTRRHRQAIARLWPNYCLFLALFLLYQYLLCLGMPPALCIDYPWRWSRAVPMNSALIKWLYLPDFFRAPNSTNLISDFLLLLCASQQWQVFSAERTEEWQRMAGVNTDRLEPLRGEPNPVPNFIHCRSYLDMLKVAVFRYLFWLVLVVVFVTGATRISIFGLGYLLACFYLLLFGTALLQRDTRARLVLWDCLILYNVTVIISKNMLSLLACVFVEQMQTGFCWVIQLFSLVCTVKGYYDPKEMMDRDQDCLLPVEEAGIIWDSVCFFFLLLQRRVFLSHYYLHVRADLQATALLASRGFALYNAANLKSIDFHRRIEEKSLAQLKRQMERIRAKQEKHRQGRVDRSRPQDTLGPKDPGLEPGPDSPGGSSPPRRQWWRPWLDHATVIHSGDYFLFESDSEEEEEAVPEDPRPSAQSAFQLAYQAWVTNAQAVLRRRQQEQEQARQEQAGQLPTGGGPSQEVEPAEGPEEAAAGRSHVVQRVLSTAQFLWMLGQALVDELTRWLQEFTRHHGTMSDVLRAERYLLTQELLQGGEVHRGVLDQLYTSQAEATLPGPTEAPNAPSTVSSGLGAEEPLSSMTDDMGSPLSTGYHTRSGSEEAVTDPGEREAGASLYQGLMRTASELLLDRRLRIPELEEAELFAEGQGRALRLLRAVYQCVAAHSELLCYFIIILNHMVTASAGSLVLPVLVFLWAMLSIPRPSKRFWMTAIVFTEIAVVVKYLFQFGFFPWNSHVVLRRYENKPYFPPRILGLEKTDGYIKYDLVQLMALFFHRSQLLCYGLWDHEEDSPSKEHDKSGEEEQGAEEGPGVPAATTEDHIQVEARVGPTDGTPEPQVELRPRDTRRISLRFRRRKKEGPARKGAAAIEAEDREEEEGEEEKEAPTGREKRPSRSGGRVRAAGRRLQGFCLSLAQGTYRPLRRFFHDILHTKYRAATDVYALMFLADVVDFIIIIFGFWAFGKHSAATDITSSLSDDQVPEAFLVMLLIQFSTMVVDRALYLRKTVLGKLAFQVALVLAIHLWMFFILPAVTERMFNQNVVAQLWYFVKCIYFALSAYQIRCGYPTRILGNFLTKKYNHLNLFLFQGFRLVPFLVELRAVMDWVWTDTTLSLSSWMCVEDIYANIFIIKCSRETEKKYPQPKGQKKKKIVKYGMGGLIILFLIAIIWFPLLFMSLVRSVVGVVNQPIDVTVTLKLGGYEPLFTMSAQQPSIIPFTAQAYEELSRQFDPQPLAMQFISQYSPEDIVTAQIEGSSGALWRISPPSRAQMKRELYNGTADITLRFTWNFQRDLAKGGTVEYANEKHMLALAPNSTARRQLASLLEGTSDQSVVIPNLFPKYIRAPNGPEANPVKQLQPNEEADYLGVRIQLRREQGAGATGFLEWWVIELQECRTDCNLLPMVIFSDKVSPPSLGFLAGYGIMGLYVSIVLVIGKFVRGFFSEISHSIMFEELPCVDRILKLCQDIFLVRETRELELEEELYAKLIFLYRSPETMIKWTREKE

In the case of Clc1cccc(Cl)c1CSc1nnc(-c2cnccn2)s1 [Yoda1], the “Yoda1 activated Ca2+ transients, amplitude normalized to ionomycin” value [1] is reported as 0.82±0.14, the “secretion of anti-inflammatory IL-10” value ([2]; LPS) is reported as “increases the secretion” and the “LPS induced secretion of pro-inflammatory IL-6” value [2] is reported as “prevented the LPS induced secretion”. The “LPS induced secretion of pro-inflammatory IL-8” value [2] was “prevented the LPS induced secretion”, the “LPS induced secretion of pro-inflammatory MCP1” value [2] was “prevented the LPS induced secretion” and the “Yoda1 elicited calcium responses in red blood cells, TG 5xFAD versus age-matched WT” value [3] was “significantly lower”.
